One block for each compound: values may come before it.
Experiments:
FAF1-Caspase 8 complex = molecular target: T1, FAF1-Caspase 8 complex (Homo sapiens, UniProt Q9UNN5); experiment: Immunoprecipitation assay of FAF1-Caspase 8 complex formation; format: biochemical
T1 construct: host or cells: cell extracts
T1 sequence (Q9UNN5 1-650): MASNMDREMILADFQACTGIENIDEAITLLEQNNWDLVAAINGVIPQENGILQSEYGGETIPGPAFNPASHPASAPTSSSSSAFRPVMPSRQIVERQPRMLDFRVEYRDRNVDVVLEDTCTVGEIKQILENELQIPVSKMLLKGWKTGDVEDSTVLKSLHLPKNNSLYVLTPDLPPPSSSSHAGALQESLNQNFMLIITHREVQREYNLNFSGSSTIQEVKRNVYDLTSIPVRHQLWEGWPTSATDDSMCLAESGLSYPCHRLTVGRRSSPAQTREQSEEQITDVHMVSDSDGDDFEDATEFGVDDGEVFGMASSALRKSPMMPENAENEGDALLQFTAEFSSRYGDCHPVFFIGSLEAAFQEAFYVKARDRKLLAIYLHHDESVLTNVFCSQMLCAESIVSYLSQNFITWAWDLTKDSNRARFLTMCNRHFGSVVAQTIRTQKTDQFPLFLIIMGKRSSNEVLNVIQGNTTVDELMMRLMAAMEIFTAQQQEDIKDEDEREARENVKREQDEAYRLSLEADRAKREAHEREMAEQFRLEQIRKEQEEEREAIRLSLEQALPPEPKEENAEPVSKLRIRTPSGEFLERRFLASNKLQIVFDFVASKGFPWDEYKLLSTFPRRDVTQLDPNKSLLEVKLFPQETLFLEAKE
Source text: (§1) FAF1 activates apoptotic stress by various stimuli through activation of caspase cascade and necrosis as described (Yu C et al. 2016). The direct targets of FAF1 are caspase 8 and JNK in these two pathways, respectively. And the step of this activation is forming these complexes followed by activation of the downstream targets.
(§2) The inhibition of the complex formation of FAF1-Caspase 8 and FAF1-JNK by KM-819 is confirmed by the usual immunoprecipitation assays using a caspase8 DED antibody and a JNK antibody, and bound and precipitated FAF1 are measured by Western blot using anti-FAF1 antibody. Clearly, KM-819 inhibits the complex formation effectively, about 80% inhibition at 0.1 uM (FIG. 8).

FAF1-JNK complex = molecular target: T2, FAF1-JNK complex (Homo sapiens, UniProt Q9UNN5); experiment: Immunoprecipitation assay of FAF1-JNK complex formation; format: biochemical
T2 construct: host or cells: cell extracts
T2 sequence (Q9UNN5 1-650): T1 sequence (Q9UNN5 1-650)
Source text: as §1, §2

Caspase 8 = Caspase 8 activation measured as Caspase 3 cleavage, Western blot; format: cell-based; conditions: cleavage of Caspase 3
Method: (§3) The inhibition of activation of Caspase 8 and JNK by KM-819 is confirmed by assaying the cleavage of the Caspase 8 substrate, Caspase 3, and autophosphorylation of JNK, respectively (FIG. 9). The cells are treated with different concentration of KM-819 as indicated and the levels of cleaved Caspase 3 and autophosphorylated form of JNK are measured by Western blot using anti-Caspase 3 antibody and anti-phospho-JNK antibody, respectively. Clearly, KM-819 inhibits the activity of Caspase 8 and JNK activation (FIG. 9).

JNK = JNK activation measured as JNK autophosphorylation, Western blot; format: cell-based; conditions: autophosphorylation of JNK
Method: as §3

LC3 and p62 = experiment: Autophagy promotion: LC3 and p62 levels in SH-SY5Y cells overexpressing FAF1, Western blot; format: cell-based
Method: EC50 for autophagy promotion of KM-819 is 1 nM.

alpha-synuclein = experiment: Alpha-synuclein level in SH-SY5Y cells co-transfected with FAF1-Flag and alpha-synuclein-GFP, Western blot; format: cell-based
Method: To confirm if FAF1 inhibitor decreases the alpha-synuclein level in cells, SH-SY5Y cells are treated with the FAF1 inhibitor KM-819 (KR-88493, U.S. Pat. No. 7,939,550, Yoo S E et al. 2016). Cells are co-transfected with genes encoding FAF1 tagged with Flag and alpha-synuclein tagged with GFP. The alpha-synuclein level is measured by Western blot of cell extracts using anti-GFP antibody. The FAF1 level is measured by Western blot of cell extracts using anti-Flag antibody. Clearly, the level of alpha-synuclein is decreased upon treatment with FAF1 inhibitor (FIG. 11). […] This is much higher efficacy compared to the apoptosis inhibition activity measured in the prior art, 70% inhibition at 10 uM. Note that FAF1 level itself is not changed by treatment with FAF1 inhibitor.

[1] = tested on: human alpha-synuclein mutant A53T; experiment: Alpha-synuclein level in brain tissues of alpha-synuclein A53T transgenic mice after oral KM-819, Western blot; format: in vivo; conditions: oral 1, 5, 10 mg/kg/day for 9 days, A53T Tg mice
[2] = tested on: deoxy-glucose induced hypoxia-mediated apoptosis; conditions: at 10 uM; U.S. Pat. No. 7,939,550; cited from earlier work
FAF1 = FAF1 siRNA treatment of SH-SY5Y cells cotransfected with the alpha-synuclein gene, Western blot; format: cell-based
Source text: FAF1 expression is attenuated by treating SH-SY5Y cells with siRNA (sequence: GUGUUGUGGCACAAACCAU) and reduction in FAF level is confirmed by Western blot of cell extracts using anti-FAF1 antibody. The cells are cotransfected with the alpha-synuclein gene. The level of alpha-synuclein is monitored by Western blot using anti-alpha-synuclein antibody. Clearly, the level of alpha-synuclein is decreased with FAF1 siRNA treatment (FIG. 5).

inhibition at 0.1 µM (FAF1-Caspase 8 complex): ~80%
inhibition at 0.1 µM (FAF1-JNK complex): ~80%
IC50 (Caspase 8): 730 nM
IC50 (JNK): 250 nM
EC50 (LC3 and p62; Homo sapiens, read-out: EC50 for autophagy promotion (modulating LC-3 and p62 levels)): 1 nM
EC50 (alpha-synuclein; Homo sapiens, SH-SY5Y, as stated in description b51, read-out: EC50 for decreasing the amount of alpha-synuclein in cells): 20 nM
IC50 (alpha-synuclein; Homo sapiens, SH-SY5Y cells, FAF1-Flag and alpha-synuclein-GFP, read-out: IC50 for decrease of alpha-synuclein level): 20 nM
Compound: O=C(CSc1ccc(Br)cc1)Nc1cn(CCc2ccccc2)nc1C(=O)O [KM-819, 4-[2-(4-bromo-phenylsulfanyl)-acetylamino]-1-phenethyl-1H-pyrazole-3-carboxylic acid]
LC3 level (LC3 and p62): increases
p62 protein level (LC3 and p62): decreases
inhibition at 10 µM (alpha-synuclein; Homo sapiens, SH-SY5Y, at 10 uM): > 95%
FAF1 level (alpha-synuclein; SH-SY5Y cells, anti-Flag Western blot): not changed
FAF1 level in midbrain [1]: not changed
level of S129 phosphorylated alpha-synuclein in midbrain [1]: decreased
level of alpha-synuclein in cerebellum [1]: decreased
level of alpha-synuclein in cortex [1]: decreased
level of alpha-synuclein in hippocampus [1]: decreased
level of alpha-synuclein in midbrain [1]: decreased
level of alpha-synuclein in striatum [1]: decreased
inhibition of apoptosis [2]: 70%

Compound: FAF1 siRNA: siRNA (sequence: GUGUUGUGGCACAAACCAU) that attenuates FAF1 expression in SH-SY5Y cells (chemistry not given here)
level of alpha-synuclein (FAF1; SH-SY5Y cells cotransfected with alpha-synuclein gene): decreased
FAF1 expression (FAF1; SH-SY5Y cells, anti-FAF1 Western blot): attenuated
